# Test results as given in ChEMBL document CHEMBL1944614, “A scaffold hopping approach to identify novel monoamine oxidase B inhibitors” (Bioorg Med Chem Lett, 2012).
# Legend:
# [1] = biological target: T1, Amine oxidase [flavin-containing] B (Homo sapiens, UniProt P27338); assay: Competitive inhibition of human recombinant MAOB by Lineweaver-Burk plot analysis
# T1 sequence (P27338 whole entry): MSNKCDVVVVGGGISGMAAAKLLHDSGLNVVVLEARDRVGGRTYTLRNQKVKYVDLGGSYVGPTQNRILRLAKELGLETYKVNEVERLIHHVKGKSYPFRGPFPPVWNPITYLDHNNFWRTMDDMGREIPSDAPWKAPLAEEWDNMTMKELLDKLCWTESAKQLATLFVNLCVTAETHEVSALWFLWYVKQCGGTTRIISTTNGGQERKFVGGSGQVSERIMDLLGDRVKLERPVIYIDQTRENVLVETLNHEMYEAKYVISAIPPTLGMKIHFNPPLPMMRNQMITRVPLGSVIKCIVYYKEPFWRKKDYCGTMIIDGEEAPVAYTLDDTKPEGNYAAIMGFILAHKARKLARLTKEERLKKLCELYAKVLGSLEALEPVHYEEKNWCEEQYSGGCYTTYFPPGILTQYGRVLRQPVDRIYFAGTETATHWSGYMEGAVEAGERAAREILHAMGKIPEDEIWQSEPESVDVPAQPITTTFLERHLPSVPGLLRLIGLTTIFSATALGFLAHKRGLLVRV
# [2] = biological target: T1, Amine oxidase [flavin-containing] B; assay: Inhibition of human recombinant MAOB using kynuramine as substrate by fluorimetry
# [3] = biological target: T2, Amine oxidase [flavin-containing] A (Homo sapiens, UniProt P21397); assay: Inhibition of human recombinant MAOA using kynuramine as substrate by fluorimetry
# T2 sequence (P21397 whole entry): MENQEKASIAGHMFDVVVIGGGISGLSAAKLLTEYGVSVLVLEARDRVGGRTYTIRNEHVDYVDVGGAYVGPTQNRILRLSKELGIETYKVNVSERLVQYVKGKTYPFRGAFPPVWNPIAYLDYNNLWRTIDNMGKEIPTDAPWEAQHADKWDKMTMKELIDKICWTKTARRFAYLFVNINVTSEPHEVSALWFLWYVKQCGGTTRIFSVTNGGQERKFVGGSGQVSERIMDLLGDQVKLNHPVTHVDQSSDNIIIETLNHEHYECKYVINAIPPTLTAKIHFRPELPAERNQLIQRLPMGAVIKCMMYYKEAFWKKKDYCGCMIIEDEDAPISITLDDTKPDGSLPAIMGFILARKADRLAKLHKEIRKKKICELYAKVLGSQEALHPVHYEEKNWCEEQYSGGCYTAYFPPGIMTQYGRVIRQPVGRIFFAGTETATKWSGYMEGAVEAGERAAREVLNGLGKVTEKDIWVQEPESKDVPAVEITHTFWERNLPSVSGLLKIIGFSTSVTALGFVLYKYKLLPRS
inhibition (INH) [1],IC50 [2] [µM],IC50 [3] [µM],SMILES
,11.5,17.7,O=C1/C(=C/c2ccccc2O)Oc2cc(O)ccc21
,,0.979,CN(C)c1ccc(/C=C2\Oc3cc(O)ccc3C2=O)cc1
,0.099,0.268,CN(C)c1ccc(/C=C2\Oc3ccccc3C2=O)cc1
,0.305,0.709,O=C1/C(=C/c2ccc(Cl)cc2)Oc2ccccc21
,3.35,40.2,Cc1ccc2c(c1)O/C(=C\c1ccccc1)C2=O

# Continued, molecule first:
SMILES,inhibition (INH) [1],IC50 [2] [µM],IC50 [3] [µM]
O=C1NC(=O)/C(=C\c2ccc(Br)cc2)S1,Active,0.228,43.5
Cc1[nH]n(-c2ccccc2)c(=O)c1/C=N/NC(=O)c1cccnc1,,13.3,> 100
COc1ccc(NC(=O)N2CCc3ccccc32)cc1,,2.62,> 100
CCOC1CC(c2ccccc2)=NN1c1ccc([N+](=O)[O-])cc1 (stereo not drawn),,0.921,5.36
